Assay results: US9850283B2, “Macrocyclic inhibitors of the PD-1/PD-L1 and CD80(B7-1)/PD-L1 protein/protein interactions” (BRISTOL-MYERS SQUIBB COMPANY, priority 2013, dated 2017)
Positions of bridges follow the written chain, without caps; N, C: chain ends. Non-standard residues stand in square brackets, D forms with d. Residues, ends and D or L forms follow the SMILES beside them. Hyp = O=C(O)[C@@H]1C[C@@H](O)CN1; NMeNle = CCCC[C@H](NC)C(=O)O; Pip = O=C(O)[C@@H]1CCCCN1; NMeA = CN[C@@H](C)C(=O)O; Orn = NCCC[C@H](N)C(=O)O; Dab = NCC[C@H](N)C(=O)O; Dap = NC[C@H](N)C(=O)O

Key:
[1] = biological target: T1, LK35.2-hPD-L1 cells / PE-labeled PD-1-Ig (Homo sapiens, UniProt Q9NZQ7); assay: LK35.2-hPD-L1 cell binding high-content screening assay; type: cell-based; conditions: cluster symbol; cell line of CBA not given (LK35.2-hPD-L1 or 293T-hPD-L1); read-out: CBA IC50 cluster
T1 construct: expressed in transfected cells; host or cells: LK35.2 mouse B cell line
T1 sequence (Q9NZQ7 19-290): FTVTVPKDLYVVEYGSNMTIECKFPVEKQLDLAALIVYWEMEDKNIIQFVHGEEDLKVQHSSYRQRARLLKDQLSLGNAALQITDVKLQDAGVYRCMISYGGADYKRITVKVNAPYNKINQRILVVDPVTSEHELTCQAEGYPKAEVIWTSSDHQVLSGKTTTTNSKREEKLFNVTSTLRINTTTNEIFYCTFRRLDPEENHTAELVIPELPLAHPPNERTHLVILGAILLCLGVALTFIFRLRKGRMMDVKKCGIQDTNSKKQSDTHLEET
In short: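 Binding of PE-conjugated human PD-1-Ig (1 nM final) to human PD-L1 stably expressed on a mouse B-cell line (LK35.2) was measured by high-content imaging after washes. Compound and labeled PD-1-Ig were co-incubated 1 h at 37 °C with cells in RPMI/10% FCS.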

Human PD-L1/PD-1 = biological target: T2, Human PD-L1/PD-1 (Homo sapiens, UniProt Q9NZQ7); assay: HTRF PD-1-Ig/PD-L1-His binding assay (human PD-L1); conditions: cluster symbol; read-out: HTRF IC50 cluster
T2 construct: made in house; host or cells: HEK293T
T2 sequence (Q9NZQ7 with tags, fused parts or gaps): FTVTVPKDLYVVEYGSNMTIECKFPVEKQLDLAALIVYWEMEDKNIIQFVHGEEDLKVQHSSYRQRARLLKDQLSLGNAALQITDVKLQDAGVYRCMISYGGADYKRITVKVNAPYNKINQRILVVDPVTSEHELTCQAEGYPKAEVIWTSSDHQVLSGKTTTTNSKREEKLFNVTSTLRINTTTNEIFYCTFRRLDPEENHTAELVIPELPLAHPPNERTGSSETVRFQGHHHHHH
In short: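 Interaction of Fc-tagged soluble PD-1 with His-tagged soluble PD-L1 is monitored by time-resolved FRET. Donor is europium cryptate anti-Ig (1 nM final) and acceptor is APC anti-His (20 nM final). Assay buffer is dPBS with 0.1% BSA and 0.05% Tween-20.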

Row | Compound | IC50 [1] | IC50 (Human PD-L1/PD-1)
1 | CCCC[C@H]1C(=O)N(C)[C@@H](CCCC)C(=O)N[C@@H](CCCN)C(=O)N[C@H](C(=O)NCC(N)=O)CSCC(=O)N[C@@H](Cc2ccc(O)cc2)C(=O)N2CCCC[C@H]2C(=O)N[C@@H](CC(N)=O)C(=O)N2CCC[C@H]2C(=O)N[C@@H](Cc2cnc[nH]2)C(=O)N[C@@H](CCC(=O)O)C(=O)N2C[C@H](O)C[C@H]2C(=O)N[C@@H](Cc2c[nH]c3ccccc23)C(=O)N[C@@H](CO)C(=O)N[C@@H](Cc2c[nH]c3ccccc23)C(=O)N1C [Example 1234] ({CH2CO}-Y[Pip]NPHE[Hyp]WSW[NMeNle][NMeNle][Orn]CG-NH2; thioether N-14) | 0.158 to 4.71 nM | 6.76 to 30.3 nM
2 | CCCC[C@H]1C(=O)N(C)[C@@H](CCCC)C(=O)N[C@@H](CCCN)C(=O)N[C@H](C(=O)NCC(N)=O)CSCC(=O)N[C@@H](Cc2ccc(O)cc2)C(=O)N2CCCC[C@H]2C(=O)N[C@@H](CC(=O)O)C(=O)N2CCC[C@H]2C(=O)N[C@@H](CN)C(=O)N[C@@H](CC(C)C)C(=O)N2C[C@H](O)C[C@H]2C(=O)N[C@@H](Cc2c[nH]c3ccccc23)C(=O)N[C@@H](CO)C(=O)N[C@@H](Cc2c[nH]c3ccccc23)C(=O)N1C [Example 1235] ({CH2CO}-Y[Pip]DP[Dap]L[Hyp]WSW[NMeNle][NMeNle][Orn]CG-NH2; thioether N-14) | 0.158 to 4.71 nM | 6.76 to 30.3 nM
3 | CCCC[C@H]1C(=O)N(C)[C@@H](CCCC)C(=O)N[C@@H](CCCNC(=N)N)C(=O)N[C@H](C(=O)NCC(N)=O)CSCC(=O)N[C@@H](Cc2ccc(O)cc2)C(=O)N2CCCC[C@H]2C(=O)N[C@@H](CC(N)=O)C(=O)N2CCC[C@H]2C(=O)N[C@@H](CN)C(=O)N[C@@H](CC(C)C)C(=O)N2C[C@H](O)C[C@H]2C(=O)N[C@@H](Cc2c[nH]c3ccccc23)C(=O)N[C@@H](CO)C(=O)N[C@@H](Cc2c[nH]c3ccccc23)C(=O)N1C [Example 1236] ({CH2CO}-Y[Pip]NP[Dap]L[Hyp]WSW[NMeNle][NMeNle]RCG-NH2; thioether N-14) | 0.158 to 4.71 nM | 6.76 to 30.3 nM
4 | CCCC[C@H]1C(=O)N(C)[C@@H](CCCC)C(=O)N[C@@H](C)C(=O)N[C@H](C(N)=O)CSCC(=O)N[C@@H](Cc2ccc(O)cc2)C(=O)N(C)[C@@H](C)C(=O)N[C@@H](CCC(=O)O)C(=O)N2CCC[C@H]2C(=O)N[C@@H](Cc2cnc[nH]2)C(=O)N[C@@H](CCN)C(=O)N2C[C@H](O)C[C@H]2C(=O)N[C@@H](Cc2c[nH]c3ccccc23)C(=O)N[C@@H](CO)C(=O)N[C@@H](Cc2c[nH]c3ccccc23)C(=O)N1C [Example 1239] ({CH2CO}-Y[NMeA]EPH[Dab][Hyp]WSW[NMeNle][NMeNle]AC-NH2; thioether N-14) | 4.78 to 72.9 nM | 6.76 to 30.3 nM
5 | CCCC[C@H]1C(=O)N(C)CC(=O)N[C@@H](CC(=O)O)C(=O)N[C@@H](C(C)C)C(=O)N(C)[C@@H](Cc2ccccc2)C(=O)N[C@@H](Cc2ccc(O)cc2)C(=O)N(C)CC(=O)N[C@@H](Cc2c[nH]c3ccccc23)C(=O)N[C@@H](Cc2ccc(O)cc2)C(=O)N[C@@H](CC(C)C)C(=O)N[C@H](C(=O)NCC(N)=O)CSCC(=O)N(C)[C@@H](Cc2ccccc2)C(=O)N1C [Example 3052] (HELM PEPTIDE1{[O=C(C[*:3])[*:2]].[meF].[CCCC[C@@H](C(=O)[*:2])N(C)[*:1]].[Sar].D.V.[meF].Y.[Sar].W.Y.L.C.G.[am]}$PEPTIDE1,PEPTIDE1,1:R3-13:R3$$$V2.0) | > 74.3 nM | > 30.5 nM
6 | CCCC[C@H]1C(=O)N(C)CC(=O)N[C@@H](CC(=O)O)C(=O)N[C@@H](C(C)C)C(=O)N(C)[C@@H](Cc2ccccc2)C(=O)N[C@@H](Cc2ccc(O)cc2)C(=O)N(C)CC(=O)N[C@@H](Cc2c[nH]c3ccccc23)C(=O)N[C@@H](Cc2ccc(O)cc2)C(=O)N[C@H](C(=O)NCC(N)=O)CSCC(=O)N[C@@H](Cc2ccccc2)C(=O)N(C)[C@@H](Cc2ccccc2)C(=O)N1C [Example 3054] (HELM PEPTIDE1{[O=C(C[*:3])[*:2]].F.[meF].[CCCC[C@@H](C(=O)[*:2])N(C)[*:1]].[Sar].D.V.[meF].Y.[Sar].W.Y.C.G.[am]}$PEPTIDE1,PEPTIDE1,1:R3-13:R3$$$V2.0) | > 74.3 nM | > 30.5 nM
7 | CCCC[C@H]1C(=O)N(C)CC(=O)N[C@@H](CC(=O)O)C(=O)N[C@@H](C(C)C)C(=O)N(C)[C@@H](Cc2ccccc2)C(=O)N[C@@H](Cc2ccc(O)cc2)C(=O)N(C)CC(=O)N[C@@H](Cc2c[nH]c3ccccc23)C(=O)N[C@H](C(=O)NCC(N)=O)CSCC(=O)N[C@@H](Cc2ccccc2)C(=O)N(C)[C@@H](Cc2ccccc2)C(=O)N1C [Example 3055] (HELM PEPTIDE1{[O=C(C[*:3])[*:2]].F.[meF].[CCCC[C@@H](C(=O)[*:2])N(C)[*:1]].[Sar].D.V.[meF].Y.[Sar].W.C.G.[am]}$PEPTIDE1,PEPTIDE1,1:R3-12:R3$$$V2.0) | > 74.3 nM | > 30.5 nM
8 | CCCC[C@H]1C(=O)N(C)CC(=O)N[C@@H](CC(=O)O)C(=O)N[C@@H](C(C)C)C(=O)N(C)[C@@H](Cc2cnc[nH]2)C(=O)N[C@@H](Cc2ccc(O)cc2)C(=O)N(C)CC(=O)N[C@@H](Cc2c[nH]c3ccccc23)C(=O)N[C@@H](Cc2ccc(O)cc2)C(=O)N[C@@H](CC(C)C)C(=O)N[C@H](C(=O)NCC(N)=O)CSCC(=O)N[C@@H](Cc2ccccc2)C(=O)N(C)[C@@H](Cc2cnc[nH]2)C(=O)N1C [Example 3058-A] (HELM PEPTIDE1{[O=C(C[*:3])[*:2]].F.[meH].[CCCC[C@@H](C(=O)[*:2])N(C)[*:1]].[Sar].D.V.[meH].Y.[Sar].W.Y.L.C.G.[am]}$PEPTIDE1,PEPTIDE1,1:R3-14:R3$$$V2.0) | > 74.3 nM | > 30.5 nM
9 | CCCC[C@H]1C(=O)N(C)CC(=O)N[C@@H](CC(=O)O)C(=O)N[C@@H](C(C)C)C(=O)N(C)[C@@H](Cc2ccccc2)C(=O)N[C@@H](Cc2ccc(O)cc2)C(=O)N(C)CC(=O)N[C@@H](Cc2c[nH]c3ccccc23)C(=O)N[C@@H](Cc2ccc(O)cc2)C(=O)N[C@@H](CC(C)C)C(=O)N[C@H](C(=O)NCC(N)=O)CSCC(=O)N[C@@H](Cc2ccccc2)C(=O)N(C)[C@@H](Cc2ccc(O)cc2)C(=O)N1C [Example 3059] (HELM PEPTIDE1{[O=C(C[*:3])[*:2]].F.[meY].[CCCC[C@@H](C(=O)[*:2])N(C)[*:1]].[Sar].D.V.[meF].Y.[Sar].W.Y.L.C.G.[am]}$PEPTIDE1,PEPTIDE1,1:R3-14:R3$$$V2.0) | 4.78 to 72.9 nM | 6.76 to 30.3 nM

Further lines, results first:

Row | IC50 [1] | IC50 (Human PD-L1/PD-1) | Compound
10 | 4.78 to 72.9 nM | 6.76 to 30.3 nM | CCCC[C@H]1C(=O)N(C)[C@@H](CCCC)C(=O)N[C@@H](C)C(=O)N[C@H](C(=O)NCC(=O)O)CSCC(=O)N[C@@H](Cc2ccc(O)cc2)C(=O)N(C)[C@@H](C)C(=O)N[C@@H](CC(N)=O)C(=O)N2CCC[C@H]2C(=O)N[C@@H](Cc2cnc[nH]2)C(=O)N[C@@H](CC(C)C)C(=O)N[C@@H](CCCCN)C(=O)N[C@@H](Cc2c[nH]c3ccccc23)C(=O)N[C@@H](CO)C(=O)N[C@@H](Cc2c[nH]c3ccccc23)C(=O)N1C [Example 1238]
11 | > 74.3 nM | > 30.5 nM | CCCC[C@H]1C(=O)N(C)CC(=O)N[C@@H](CC(=O)O)C(=O)N[C@@H](C(C)C)C(=O)N(C)[C@@H](Cc2ccccc2)C(=O)N[C@@H](Cc2ccc(O)cc2)C(=O)N(C)CC(=O)N[C@@H](Cc2c[nH]c3ccccc23)C(=O)N[C@@H](Cc2ccc(O)cc2)C(=O)N[C@@H](CC(C)C)C(=O)N[C@H](C(=O)NCC(N)=O)CSCC(=O)N[C@@H](Cc2ccccc2)C(=O)N1C [Example 3053] (HELM PEPTIDE1{[O=C(C[*:3])[*:2]].F.[CCCC[C@@H](C(=O)[*:2])N(C)[*:1]].[Sar].D.V.[meF].Y.[Sar].W.Y.L.C.G.[am]}$PEPTIDE1,PEPTIDE1,1:R3-13:R3$$$V2.0)
12 | > 74.3 nM | > 30.5 nM | CCCC[C@H]1C(=O)N(C)CC(=O)N[C@@H](CC(=O)O)C(=O)N[C@@H](C(C)C)C(=O)N(C)[C@@H](Cc2ccccc2)C(=O)N[C@@H](Cc2ccc(O)cc2)C(=O)N(C)CC(=O)N[C@@H](Cc2c[nH]c3ccccc23)C(=O)N[C@@H](Cc2ccc(O)cc2)C(=O)N[C@@H](CC(C)C)C(=O)N[C@H](C(=O)NCC(N)=O)CSCC(=O)N[C@@H](Cc2ccccc2)C(=O)N(C)[C@@H](Cc2cnc[nH]2)C(=O)N1C [Example 3056-A] (HELM PEPTIDE1{[O=C(C[*:3])[*:2]].F.[meH].[CCCC[C@@H](C(=O)[*:2])N(C)[*:1]].[Sar].D.V.[meF].Y.[Sar].W.Y.L.C.G.[am]}$PEPTIDE1,PEPTIDE1,1:R3-14:R3$$$V2.0)
13 | > 74.3 nM | > 30.5 nM | CCCC[C@H]1C(=O)N(C)CC(=O)N[C@@H](CC(=O)O)C(=O)N[C@@H](C(C)C)C(=O)N(C)[C@@H](Cc2cnc[nH]2)C(=O)N[C@@H](Cc2ccc(O)cc2)C(=O)N(C)CC(=O)N[C@@H](Cc2c[nH]c3ccccc23)C(=O)N[C@@H](Cc2ccc(O)cc2)C(=O)N[C@@H](CC(C)C)C(=O)N[C@H](C(=O)NCC(N)=O)CSCC(=O)N[C@@H](Cc2ccccc2)C(=O)N(C)[C@@H](Cc2ccccc2)C(=O)N1C [Example 3057] (HELM PEPTIDE1{[O=C(C[*:3])[*:2]].F.[meF].[CCCC[C@@H](C(=O)[*:2])N(C)[*:1]].[Sar].D.V.[meH].Y.[Sar].W.Y.L.C.G.[am]}$PEPTIDE1,PEPTIDE1,1:R3-14:R3$$$V2.0)
14 | 4.78 to 72.9 nM | 6.76 to 30.3 nM | CC(C)C[C@@H]1NC(=O)[C@H](Cc2ccc(O)cc2)NC(=O)[C@H](Cc2c[nH]c3ccccc23)NC(=O)CN(C)C(=O)[C@H](Cc2ccc(O)cc2)NC(=O)[C@H](Cc2ccccc2)N(C)C(=O)[C@H](C(C)C)NC(=O)[C@H](CC(=O)O)NC(=O)CN(C)C(=O)[C@H](Cc2ccc(O)cc2)N(C)C(=O)[C@H](Cc2ccccc2)N(C)C(=O)[C@H](Cc2ccccc2)NC(=O)CSC[C@@H](C(=O)NCC(N)=O)NC1=O [Example 3060-A] (HELM PEPTIDE1{[O=C(C[*:3])[*:2]].F.[meF].[meY].[Sar].D.V.[meF].Y.[Sar].W.Y.L.C.G.[am]}$PEPTIDE1,PEPTIDE1,1:R3-14:R3$$$V2.0)
